Measurements reported in PMC12210654, “Palazestrant, a novel oral Complete Estrogen Receptor Antagonist (CERAN) and Selective Estrogen Receptor Degrader (SERD), in patients with ER+/HER2− advanced or metastatic breast cancer: phase 1/2 study results” (Breast Cancer Research : BCR, 2025).

Experiment: Safety: adverse events (NCI CTCAE v5.0), electrocardiograms
Format: in vivo, human
Conditions: for TEAE Neutropenia, Any grade / TEAE Neutropenia, Grade 3 / TEAE Neutropenia, Grade 4 / TRAE Neutropenia, Any grade / TRAE Neutropenia, Grade 3 / TRAE Neutropenia, Grade 4: includes neutropenia, neutrophil count decreased, febrile neutropenia
Description: Safety assessments included the monitoring of AEs, clinical laboratory parameters, electrocardiograms, and vital signs. AE severity was graded according to the National Cancer Institute Common Terminology Criteria for Adverse Events (version 5.0).
All DLT analyses (phase 1a) were performed in patients enrolled in the study during cycle 1 and who either received 75% of the planned palazestrant doses or experienced a DLT during cycle 1. All PK analyses were performed in patients who received at least 1 dose of palazestrant and had adequate postbaseline PK samples for characterization of PK parameters. All safety analyses were performed and PFS assessed in patients who received at least 1 dose of palazestrant. Clinical response (CR or PR) was assessed in patients who received at least 1 cycle of palazestrant, had measurable disease at baseline, and had at least 1 postbaseline tumor assessment. CBR was assessed in patients who received at least 1 cycle of palazestrant, had at least 1 postbaseline tumor assessment, and started their first dose at least 24 weeks before data cutoff. Patients who discontinued study treatment without radiographic progression within 24 weeks from the first dose were not included in the CBR analysis. PK parameters were estimated using conventional noncompartmental methods. For CBR, estimates were accompanied by 2-sided 95% confidence intervals (95% CIs). For PFS, Kaplan–Meier analyses were used to determine medians, event-free rates, and 95% CIs. For all other outcomes, categorical data were analyzed using frequencies and percentages, and continuous data were analyzed using means (standard deviation) or medians (range), as appropriate.

With CCCN1CC(Oc2ccc([C@@H]3c4[nH]c5ccccc5c4C[C@@H](C)N3CC(C)(C)F)cc2)C1 [palazestrant, Palazestrant] the “TEAE Constipation, Any grade” value (60 mg (n = 30)) was 6 (20.0) n (%), the “TEAE Constipation, Grade 3” value (60 mg (n = 30)) was 0 n (%) and the “TEAE Constipation, Grade 4” value (60 mg (n = 30)) was 0 n (%). For the same compound, the “TEAE Diarrhea, Any grade” value (60 mg (n = 30)) was 6 (20.0) n (%), the “TEAE Diarrhea, Grade 3” value (60 mg (n = 30)) was 1 (3.3) n (%) and the “TEAE Diarrhea, Grade 4” value (60 mg (n = 30)) was 0 n (%). For the same compound, the “TEAE Fatigue, Any grade” value (60 mg (n = 30)) was 13 (43.3) n (%), the “TEAE Fatigue, Grade 3” value (60 mg (n = 30)) was 0 n (%) and the “TEAE Fatigue, Grade 4” value (60 mg (n = 30)) was 0 n (%). The “TEAE Headache, Any grade” value (60 mg (n = 30)) was 7 (23.3) n (%), the “TEAE Headache, Grade 3” value (60 mg (n = 30)) was 0 n (%) and the “TEAE Headache, Grade 4” value (60 mg (n = 30)) was 0 n (%). The “TEAE Nausea, Any grade” value (60 mg (n = 30)) was 14 (46.7) n (%), the “TEAE Nausea, Grade 3” value (60 mg (n = 30)) was 0 n (%) and the “TEAE Nausea, Grade 4” value (60 mg (n = 30)) was 0 n (%). The “TEAE Vomiting, Any grade” value (60 mg (n = 30)) was 5 (16.7) n (%), the “TEAE Vomiting, Grade 3” value (60 mg (n = 30)) was 0 n (%) and the “TEAE Vomiting, Grade 4” value (60 mg (n = 30)) was 0 n (%). The “TRAE Fatigue, Any grade” value (60 mg (n = 30)) was 9 (30.0) n (%), the “TRAE Fatigue, Grade 3” value (60 mg (n = 30)) was 0 n (%) and the “TRAE Fatigue, Grade 4” value (60 mg (n = 30)) was 0 n (%). The “TRAE Headache, Any grade” value (60 mg (n = 30)) was 3 (10.0) n (%), the “TRAE Headache, Grade 3” value (60 mg (n = 30)) was 0 n (%) and the “TRAE Headache, Grade 4” value (60 mg (n = 30)) was 0 n (%). The “TRAE Nausea, Any grade” value (60 mg (n = 30)) was 10 (33.3) n (%), the “TRAE Nausea, Grade 3” value (60 mg (n = 30)) was 0 n (%) and the “TRAE Nausea, Grade 4” value (60 mg (n = 30)) was 0 n (%). For the same compound, the “TRAE Vomiting, Any grade” value (60 mg (n = 30)) was 3 (10.0) n (%), the “TRAE Vomiting, Grade 3” value (60 mg (n = 30)) was 0 n (%) and the “TRAE Vomiting, Grade 4” value (60 mg (n = 30)) was 0 n (%). The “TEAE Neutropenia, Any grade” value (60 mg (n = 30)) was 2 (6.7) n (%), the “TEAE Neutropenia, Grade 3” value (60 mg (n = 30)) was 0 n (%) and the “TEAE Neutropenia, Grade 4” value (60 mg (n = 30)) was 0 n (%). For the same compound, the “TRAE Neutropenia, Any grade” value (60 mg (n = 30)) was 0 n (%), the “TRAE Neutropenia, Grade 3” value (60 mg (n = 30)) was 0 n (%) and the “TRAE Neutropenia, Grade 4” value (60 mg (n = 30)) was 0 n (%). The “TEAE Constipation, Any grade” value (120 mg (n = 86)) was 15 (17.4) n (%), the “TEAE Constipation, Grade 3” value (120 mg (n = 86)) was 0 n (%) and the “TEAE Constipation, Grade 4” value (120 mg (n = 86)) was 0 n (%). For the same compound, the “TEAE Diarrhea, Any grade” value (120 mg (n = 86)) was 12 (14.0) n (%), the “TEAE Diarrhea, Grade 3” value (120 mg (n = 86)) was 0 n (%) and the “TEAE Diarrhea, Grade 4” value (120 mg (n = 86)) was 0 n (%). For the same compound, the “TEAE Fatigue, Any grade” value (120 mg (n = 86)) was 22 (25.6) n (%), the “TEAE Fatigue, Grade 3” value (120 mg (n = 86)) was 3 (3.5) n (%) and the “TEAE Fatigue, Grade 4” value (120 mg (n = 86)) was 0 n (%). The “TEAE Headache, Any grade” value (120 mg (n = 86)) was 17 (19.8) n (%), the “TEAE Headache, Grade 3” value (120 mg (n = 86)) was 0 n (%) and the “TEAE Headache, Grade 4” value (120 mg (n = 86)) was 0 n (%). For the same compound, the “TEAE Nausea, Any grade” value (120 mg (n = 86)) was 54 (62.8) n (%), the “TEAE Nausea, Grade 3” value (120 mg (n = 86)) was 3 (3.5) n (%) and the “TEAE Nausea, Grade 4” value (120 mg (n = 86)) was 0 n (%). The “TEAE Vomiting, Any grade” value (120 mg (n = 86)) was 25 (29.1) n (%), the “TEAE Vomiting, Grade 3” value (120 mg (n = 86)) was 4 (4.7) n (%) and the “TEAE Vomiting, Grade 4” value (120 mg (n = 86)) was 0 n (%). For the same compound, the “TRAE Fatigue, Any grade” value (120 mg (n = 86)) was 17 (19.8) n (%), the “TRAE Fatigue, Grade 3” value (120 mg (n = 86)) was 2 (2.3) n (%) and the “TRAE Fatigue, Grade 4” value (120 mg (n = 86)) was 0 n (%). For the same compound, the “TRAE Headache, Any grade” value (120 mg (n = 86)) was 13 (15.1) n (%), the “TRAE Headache, Grade 3” value (120 mg (n = 86)) was 0 n (%) and the “TRAE Headache, Grade 4” value (120 mg (n = 86)) was 0 n (%). For the same compound, the “TRAE Nausea, Any grade” value (120 mg (n = 86)) was 47 (54.7) n (%), the “TRAE Nausea, Grade 3” value (120 mg (n = 86)) was 3 (3.5) n (%) and the “TRAE Nausea, Grade 4” value (120 mg (n = 86)) was 0 n (%). The “TRAE Vomiting, Any grade” value (120 mg (n = 86)) was 21 (24.4) n (%), the “TRAE Vomiting, Grade 3” value (120 mg (n = 86)) was 2 (2.3) n (%) and the “TRAE Vomiting, Grade 4” value (120 mg (n = 86)) was 0 n (%). For the same compound, the “TEAE Neutropenia, Any grade” value (120 mg (n = 86)) was 21 (24.4) n (%), the “TEAE Neutropenia, Grade 3” value (120 mg (n = 86)) was 3 (3.5) n (%) and the “TEAE Neutropenia, Grade 4” value (120 mg (n = 86)) was 6 (7.0) n (%). The “TRAE Neutropenia, Any grade” value (120 mg (n = 86)) was 18 (20.9) n (%), the “TRAE Neutropenia, Grade 3” value (120 mg (n = 86)) was 3 (3.5) n (%) and the “TRAE Neutropenia, Grade 4” value (120 mg (n = 86)) was 5 (5.8) n (%). For the same compound, the “grade 4 neutropenia resolved with dose interruption followed by dose reduction, treatment continued with no further neutropenia” value (120 mg/day) was 3 patients, the “Grade 3 TEAE fatigue” value (120 mg/day (n = 86)) was 3.5% and the “Grade 3 TEAE nausea” value (120 mg/day (n = 86)) was 3.5%. The “Grade 3 TEAE neutropenia” value (120 mg/day (n = 86)) was 3.5%, the “Grade 3 TEAE vomiting” value (120 mg/day (n = 86)) was 4.7% and the “TEAE fatigue, any grade” value (120 mg/day (n = 86)) was 25.6%. The “TEAE nausea, any grade” value (120 mg/day (n = 86)) was 62.8%, the “TEAE vomiting, any grade” value (120 mg/day (n = 86)) was 29.1% and the “TRAE fatigue, any grade” value (120 mg/day (n = 86)) was 19.8%. The “TRAE headache, any grade” value (120 mg/day (n = 86)) was 15.1%.
